Data: US12581252B2, “Substituted pyrrolo[3,4-b]pyridines as PI3K-α inhibitors” (Relay Therapeutics, Inc., priority 2020, dated 2026)

What follows are compounds tested against H1047R PIK3CA enzyme (Homo sapiens, UniProt P42336, H1047R) (assay: ADP-Glo Biochemical PIK3CA Kinase Assay).
Sequence of H1047R PIK3CA enzyme (P42336 whole entry H1047R): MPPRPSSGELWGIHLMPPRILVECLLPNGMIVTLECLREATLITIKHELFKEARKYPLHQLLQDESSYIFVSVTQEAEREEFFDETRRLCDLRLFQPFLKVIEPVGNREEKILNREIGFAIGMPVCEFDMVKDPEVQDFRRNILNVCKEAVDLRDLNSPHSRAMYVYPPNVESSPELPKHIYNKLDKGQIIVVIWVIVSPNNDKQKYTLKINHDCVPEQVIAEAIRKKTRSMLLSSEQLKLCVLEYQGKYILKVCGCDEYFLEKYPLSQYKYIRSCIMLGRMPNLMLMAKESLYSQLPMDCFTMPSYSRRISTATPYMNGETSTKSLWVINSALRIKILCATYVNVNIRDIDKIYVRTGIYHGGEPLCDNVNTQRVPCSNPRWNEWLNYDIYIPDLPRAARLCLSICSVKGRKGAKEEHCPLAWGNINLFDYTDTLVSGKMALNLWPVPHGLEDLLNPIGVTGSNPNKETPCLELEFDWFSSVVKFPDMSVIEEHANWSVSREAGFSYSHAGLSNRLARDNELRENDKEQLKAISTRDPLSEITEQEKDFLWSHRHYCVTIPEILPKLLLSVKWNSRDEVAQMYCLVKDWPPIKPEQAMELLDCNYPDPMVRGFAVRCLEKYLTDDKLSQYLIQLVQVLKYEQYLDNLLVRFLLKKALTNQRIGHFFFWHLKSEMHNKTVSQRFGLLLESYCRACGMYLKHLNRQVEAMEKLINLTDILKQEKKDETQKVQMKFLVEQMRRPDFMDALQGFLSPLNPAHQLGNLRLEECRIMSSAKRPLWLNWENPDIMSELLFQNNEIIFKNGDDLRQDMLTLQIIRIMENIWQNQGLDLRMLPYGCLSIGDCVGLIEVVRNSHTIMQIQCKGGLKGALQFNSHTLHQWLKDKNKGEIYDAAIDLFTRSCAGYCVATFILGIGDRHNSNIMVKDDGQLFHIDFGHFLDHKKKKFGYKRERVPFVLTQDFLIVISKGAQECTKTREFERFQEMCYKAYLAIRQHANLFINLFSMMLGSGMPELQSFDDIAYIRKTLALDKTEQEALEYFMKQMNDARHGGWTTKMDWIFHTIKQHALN
Sequence of H1047R PIK3CA enzyme (P27986 whole entry partner): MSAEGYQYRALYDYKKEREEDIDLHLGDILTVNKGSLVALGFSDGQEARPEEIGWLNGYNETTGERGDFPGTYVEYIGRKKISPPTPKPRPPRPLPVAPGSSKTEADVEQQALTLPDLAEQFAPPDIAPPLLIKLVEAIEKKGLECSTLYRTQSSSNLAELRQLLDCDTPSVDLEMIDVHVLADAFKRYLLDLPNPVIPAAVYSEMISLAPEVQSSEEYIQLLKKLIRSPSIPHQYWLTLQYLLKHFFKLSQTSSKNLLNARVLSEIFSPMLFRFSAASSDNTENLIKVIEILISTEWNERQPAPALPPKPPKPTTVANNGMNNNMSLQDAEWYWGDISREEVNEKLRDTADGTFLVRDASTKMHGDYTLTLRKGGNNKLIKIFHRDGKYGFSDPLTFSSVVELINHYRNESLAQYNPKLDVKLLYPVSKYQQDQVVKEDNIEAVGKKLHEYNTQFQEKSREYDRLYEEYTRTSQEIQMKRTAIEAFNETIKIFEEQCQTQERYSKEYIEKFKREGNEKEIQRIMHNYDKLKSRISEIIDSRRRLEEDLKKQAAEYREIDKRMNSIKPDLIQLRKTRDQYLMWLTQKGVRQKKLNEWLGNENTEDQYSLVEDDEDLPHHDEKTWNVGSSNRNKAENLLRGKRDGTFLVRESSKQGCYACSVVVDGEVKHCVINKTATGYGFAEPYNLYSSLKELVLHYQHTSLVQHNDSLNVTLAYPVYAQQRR

SMILES	IC50 [nM]
O=C1N[C@@H](c2cc(F)ccc2Cl)c2c(NC(=O)N3C[C@@](O)(C(F)(F)F)c4cc(F)ccc43)ccc(-n3ccnn3)c21 (single isomer, unassigned) [Compound I-2523]	1000 to 10000
O=C(Nc1cc(Cc2ccc3c(c2)CNC3=O)cc2c1[C@H](c1cc(F)ccc1Cl)NC2=O)c1cc(F)cc(C(F)(F)F)c1 (stereo in doubt) [Compound I-1612]	≤ 100
O=C(Nc1cc(-c2ccc3ncnn3c2)cc2c1[C@H](c1cc(F)ccc1Cl)NC2=O)c1cc(Cl)cc(Cl)c1 (stereo in doubt) [Compound I-1208]	≤ 100
Cc1ccccc1C1NC(=O)Oc2cccc(Br)c21 (stereo not shown) [Compound I-10]	10000 to 100000
O=C1NC(c2cc(F)ccc2Cl)c2c(NC(=O)N3C[C@H](O)[C@@H](C(F)(F)F)C3)cc(-c3ccc4ncnn4c3)cc21 (single isomer, unassigned) [Compound I-1902]	1000 to 10000
Cc1ccccc1C1NC(=O)c2c(C(=O)NCC(N)=O)ccc(NC(=O)c3nsc4ccccc34)c21 (stereo not shown) [Compound I-261]	≤ 100
O=C1N[C@H](c2cc(F)ccc2Cl)c2c(NC(=O)[C@H]3C[C@H](O)C[C@@H](C(F)(F)F)C3)cc(Br)cc21 (single isomer, unassigned) [Compound I-2150]	1000 to 10000
Nc1nnc2ccc(-c3cc(NC(=O)c4cc(F)cc(C(F)(F)F)c4)c4c(c3)C(=O)NC4c3cc(F)ccc3Cl)cn12 (stereo not shown) [Compound I-1373]	≤ 100
O=C(Nc1cc(-c2ccc3ncnn3c2)c(Cl)c2c1C(c1cc(F)ccc1Cl)NC2=O)c1cc(F)cc(C(F)(F)F)c1 (stereo not shown) [Compound I-1667]	≤ 100
O=C1NC(c2cc(F)ccc2Cl)c2c(NC(=O)N3CCCC34CCC4)cc(Br)cc21 (stereo not shown) [Compound I-2377]	500 to 1000
Cc1ccccc1C1NC(=O)c2cccc(NC(=O)c3nsc4ccc(-c5ccccc5)cc34)c21 (stereo not shown) [Compound I-378]	1000 to 10000
O=C1Cc2cccc(C3NC(=O)c4cccc(NC(=O)c5cc(F)cc(C(F)(F)F)c5)c43)c2N1 (stereo not shown) [Compound I-810]	10000 to 100000
O=C1N[C@@H](c2cc(F)ccc2Cl)c2c(NC(=O)N3C[C@@](O)(C(F)(F)F)c4cc(F)ccc43)cc(N3CCCC3=O)cc21 (single isomer, unassigned) [Compound I-2667]	1000 to 10000
O=C1CCC[C@@H]([C@H]2NC(=O)c3cccc(NC(=O)c4cc(F)cc(C(F)(F)F)c4)c32)C1 (single isomer, unassigned) [Compound I-2253]	10000 to 100000
O=C1NC(c2cc(F)ccc2Cl)c2c(NC(=O)c3cc(F)cc4cc[nH]c34)cccc21 (stereo not shown) [Compound I-646]	≤ 100
Nc1ncc(-c2cc(NC(=O)c3cc(F)cc(C(F)(F)F)c3)c3c(c2)C(=O)NC3c2cc(F)ccc2Cl)cn1 (stereo not shown) [Compound I-885]	≤ 100
Cc1c(F)cccc1C1NC(=O)c2cccc(NC(=O)c3nsc4ccccc34)c21 (stereo not shown) [Compound I-106]	100 to 500
NCCc1cc(NC(=O)N2C[C@](O)(C(F)(F)F)c3cc(F)ccc32)c2c(c1)C(=O)N[C@H]2c1cc(F)ccc1Cl (single isomer, unassigned) [Compound I-2582]	100 to 500
Cc1ccc(F)cc1C1NC(=O)c2cc(Br)cc(NC(=O)c3cc(F)cc(C(F)(F)F)c3)c21 (stereo not shown) [Compound I-759]	≤ 100
O=C(Nc1cc(N[C@H]2C[C@@H](O)C2)cc2c1C(c1cc(F)ccc1Cl)NC2=O)c1cc(F)cc(C(F)(F)F)c1 (mixture of isomers) [Compound I-478]	≤ 100
O=C(Nc1cc(-c2cnc[nH]2)cc2c1C(c1cc(F)ccc1Cl)NC2=O)c1cc(F)cc(C(F)(F)F)c1 (stereo not shown) [Compound I-838]	≤ 100
CC(C)C1CCCN1C(=O)Nc1cccc2c1C(c1cc(F)ccc1Cl)NC2=O (mixture of isomers) [Compound I-2396]	1000 to 10000

SMILES	IC50 [nM]
O=C(Nc1cc(OCc2cccnc2)cc2c1C(c1cc(F)ccc1Cl)NC2=O)c1cc(F)cc(C(F)(F)F)c1 (stereo not shown) [Compound I-1412]	≤ 100
[2H]C1(c2cc(F)ccc2Cl)NC(=O)c2cc(-c3ccc4ncnn4c3)cc(NC(=O)c3cc(F)cc(C(F)(F)F)c3)c21 (stereo not shown) [Compound I-1413]	≤ 100
O=C1NC(c2cc(F)ccc2Cl)c2c(Nc3c[nH]c4ccccc34)cc(Br)cc21 (stereo not shown) [Compound I-1896]	10000 to 100000
Cc1ccccc1C1NC(=O)c2cccc(NC(=O)c3nsc4ccc(F)cc34)c21 (stereo not shown) [Compound I-105]	100 to 500
O=C(Nc1cc(Br)cc2c1[C@H](c1cc(F)ccc1C(F)F)NC2=O)c1cc(F)cc(C(F)(F)F)c1 [Compound I-797]	≤ 100
Cc1ccccc1[C@@H]1NC(=O)c2cccc(NC(=O)c3nsc4ccccc34)c21 [Compound I-72]	≤ 100
O=C(/C=C/c1ccccc1)Nc1cccc2c1C(c1cc(F)ccc1Cl)NC2=O (stereo not shown) [Compound I-2372]	10000 to 100000
O=C(Nc1cc(OCC(F)F)cc2c1[C@@H](c1cc(F)ccc1Cl)NC2=O)c1cc(F)cc(C(F)(F)F)c1 [Compound I-2061]	1000 to 10000
O=C(Nc1ccnc2c1C(c1ccccc1Cl)NC2=O)c1cc(F)cc(Cl)c1 (stereo not shown) [Compound I-171]	1000 to 10000
O=C1N[C@@H](c2cc(F)ccc2Cl)c2c(N[C@H]3CCOc4ccccc43)cc(Br)cc21 (racemic) [Compound I-2013]	10000 to 100000
O=C1C=C(c2cc(NC(=O)c3cc(F)cc(C(F)(F)F)c3)c3c(c2)C(=O)NC3c2cc(F)ccc2Cl)CO1 (stereo not shown) [Compound I-1587]	≤ 100
Cc1ccccc1C1NC(=O)c2c(Br)ccc(NC(=O)c3cc(F)cc(C(F)(F)F)c3)c21 (stereo not shown) [Compound I-279]	100 to 500
CCC(N)(CC)c1cc(NC(=O)c2cc(F)cc(C(F)(F)F)c2)c2c(c1)C(=O)NC2c1cc(F)ccc1Cl (stereo not shown) [Compound I-554]	≤ 100
N#Cc1cc2ncnn2cc1-c1cc(NC(=O)c2cc(F)cc(C(F)(F)F)c2)c2c(c1)C(=O)N[C@@H]2c1cc(F)ccc1Cl (single isomer, unassigned) [Compound I-1646]	≤ 100
Nc1cccc2c(=O)[nH]n(Cc3ccccc3)c12 [Compound I-103]	10000 to 100000
Cc1ccccc1C1NC(=O)c2cccc(NC(=O)C34CCC(CC3)CC4)c21 (stereo not shown) [Compound I-179, N-(1-Oxo-3-(o-tolyl)isoindolin-4-yl)bicyclo[2.2.2]octane-1-carboxamide]	1000 to 10000
O=C(Nc1cccc2c1C(C1CC1)NC2=O)c1cc(F)cc(C(F)(F)F)c1 (stereo not shown) [Compound I-259]	10000 to 100000
N#C[C@@H]1CCN(C(=O)Nc2cc(-c3ccc4ncnn4c3)cc3c2C(c2cc(F)ccc2Cl)NC3=O)C1 (mixture of isomers) [Compound I-2416]	10000 to 100000
O=C(Nc1cc(-c2ccc3ocnc3c2)cc2c1C(c1cc(F)ccc1Cl)NC2=O)c1cc(F)cc(C(F)(F)F)c1 (stereo not shown) [Compound I-1415]	≤ 100
CC(C)(C#N)n1cc(-c2cc(NC(=O)c3cc(F)cc(C(F)(F)F)c3)c3c(c2)C(=O)NC3c2cc(F)ccc2Cl)cn1 (stereo not shown) [Compound I-1618]	≤ 100
CC(C)(C)C1CCCN1C(=O)Nc1cccc2c1C(c1cc(F)ccc1Cl)NC2=O (single isomer, unassigned) [Compound I-2433]	1000 to 10000
O=C(Nc1cc(NC2CCC2(F)F)nc2c1C(c1cc(F)ccc1Cl)NC2=O)c1cc(F)cc(C(F)(F)F)c1 (stereo not shown) [Compound I-532]	≤ 100

SMILES	IC50 [nM]
O=C1NC(c2cc(F)ccc2Cl)c2c(NC(=O)C3CC4(C3)CC4(F)F)cc(Br)cc21 (stereo not shown) [Compound I-1634]	10000 to 100000
Cn1cc(-c2cc(NC(=O)c3cc(F)cc(Cl)c3)c3c(n2)C(=O)NC3c2cc(F)ccc2Cl)cn1 (stereo not shown) [Compound I-379]	100 to 500
O=C(Nc1cc(-c2cn[nH]c2)nc2c1[C@@H](c1cc(F)ccc1Cl)NC2=O)c1cc(F)cc(C(F)(F)F)c1 [Compound I-193]	1000 to 10000
NCCOc1cc(NC(=O)c2cc(F)cc(C(F)(F)F)c2)c2c(c1)C(=O)NC2c1cc(F)ccc1Cl (stereo not shown) [Compound I-1298]	100 to 500
N#Cc1cnn(-c2cc(NC(=O)c3cc(F)cc(C(F)(F)F)c3)c3c(c2)C(=O)NC3c2cc(F)ccc2Cl)c1 (stereo not shown) [Compound I-1140]	≤ 100
O=C1N[C@@H](c2cc(F)ccc2Cl)c2c(NC(=O)N3C[C@@H](O)c4c3ccc(F)c4F)cccc21 (single isomer, unassigned) [Compound I-2313]	1000 to 10000
N#Cc1ccc(C(=O)Nc2cc(Br)cc3c2C(c2cc(F)ccc2Cl)NC3=O)cc1 (stereo not shown) [Compound I-517]	10000 to 100000
CN1CCCC[C@H]1[C@@H]1NC(=O)c2cccc(NC(=O)c3cc(F)cc(C(F)(F)F)c3)c21 (racemic) [Compound I-1733]	10000 to 100000
O=C(Nc1cccc2c1C(C1CCCCC1O)NC2=O)c1cc(F)cc(C(F)(F)F)c1 (stereo not shown) [Compound I-1820]	10000 to 100000
O=C(Nc1cc(-c2cn3ncnc3cn2)cc2c1[C@@H](c1cc(F)ccc1Cl)NC2=O)c1cc(F)cc(C(F)(F)F)c1 [Compound I-1440]	1000 to 10000
CC(=O)N1CCC(C(=O)Nc2cc(-c3ccc4ncnn4c3)cc3c2C(c2cc(F)ccc2Cl)NC3=O)CC1 (stereo not shown) [Compound I-1744]	10000 to 100000
O=C(Nc1cc(-c2ccc(=O)n(C3CC3)c2)nc2c1[C@@H](c1cc(F)ccc1Cl)NC2=O)c1cc(F)cc(C(F)(F)F)c1 [Compound I-746]	1000 to 10000
N#Cc1c(-c2cc(NC(=O)c3cc(F)cc(Cl)c3)c3c(c2)C(=O)N[C@@H]3c2cc(F)ccc2Cl)ccc2ncnn12 [Compound I-2064]	≤ 100
N#Cc1nn(C(F)F)cc1-c1cc(NC(=O)c2cc(F)cc(C(F)(F)F)c2)c2c(c1)C(=O)N[C@H]2c1cc(F)ccc1Cl [Compound I-1890]	≤ 100
O=C(Nc1ccnc2c1C(c1ccccc1Cl)NC2=O)c1cc(F)cc(OC(F)(F)F)c1 (stereo not shown) [Compound I-234]	1000 to 10000
CC(C)(O)C(O)c1cc(NC(=O)c2cc(F)cc(C(F)(F)F)c2)c2c(c1)C(=O)NC2c1cc(F)ccc1Cl (racemic) [Compound I-1307]	100 to 500
O=C(Nc1cc(OC(F)F)cc2c1C(c1cc(F)ccc1Cl)NC2=O)c1cc(F)cc(C(F)(F)F)c1 (stereo not shown) [Compound I-812]	≤ 100
O=C(Nc1cc(C2CC23CC3)cc2c1C(c1cc(F)ccc1Cl)NC2=O)c1cc(F)cc(C(F)(F)F)c1 (stereo not shown) [Compound I-1266]	≤ 100
O=C(Nc1cc(Br)cc2c1C(c1cc(F)ccc1Cl)NC2=O)c1cc(F)cc([N+](=O)[O-])c1 (stereo not shown) [Compound I-832]	≤ 100
Cc1ccccc1C1NC(=O)Nc2cccc(OC(=O)c3csc4ccccc34)c21 (stereo not shown) [Compound I-295]	1000 to 10000
